Measurements: patent US7550465B2, “Pyrido[3,2-e]pyrazines, their use as inhibitors of phosphodiesterase 10, and processes for preparing them” (Elbion GmbH, priority 2006, dated 2009)

Columns and labels:
[1] = test system: MK-801-induced hyperactivity and stereotyped sniffing; test: MK-801-induced psychosis (hyperactivity and stereotyped sniffing); format: in vivo, rat; settings: p.o., 30 min before test (Example 30: 60 min), female Wistar rats, MK-801 0.1 mg/kg i.p. 10 min before, vs MK-801 control; for dose significantly reversing MK-801-induced hyperactivity: activity recorded 1 h; for dose significantly reversing MK-801-induced stereotyped sniffing: scored 1 h
Experimental: Female Wistar rats (Crl: (WI) BR, Charles River, Sulzfeld, Germany) weighing 150 to 180 g were used for the MK-801-induced psychosis. Animals were housed under standard conditions in groups of five on a 12 h light/dark cycle (light on at 0600 h) with ad libitum access to food (Pellets, ssniff M/R 15, Spezialdiät GmbH, Soest/Westfalen) and
Hydroxyethylcellulose was solved in distilled water.
MK-801 was solved in saline so that an administration volume of 0.5 ml/100 g was reached. The suspensions and solution were placed on a magnetic stirrer before and during dosing procedures.
The behaviour induced by the NMDA antagonist MK-801 is generally accepted as a rat model of psychosis. MK-801 induces stereotyped sniffing, hyperactivity and ataxia in rats after intraperitoneal administration.
Locomotor activity of the rats was recorded by the MotiTest Apparatus (TSE, Bad Homburg, Germany). The test area consisted of a squared arena (45×45 cm) with protective plexiglass walls (20 cm of height) where rats could freely move. Horizontal movements were recorded by 32 infrared photocells arranged along the bottom of each wall of the arena. The activity [sec] was measured by the computer program “ActiMot” (TSE, Bad Homburg, Germany).
Stereotyped sniffing was scored by the experimenter every five minutes for one hour (12 intervals) according to the method described by Andiné et al. (1999). The scores of the 12 intervals were summed up at the end of the recording time.
The day of experiment the female rats were placed in the laboratory and received the test compound or vehicle at the appropriate time prior to test. MK-801 0.1 mg/kg was intraperitoneally administered 10 minutes prior to test.
At the beginning of the test the rats were placed in the centre of the squared arena of the MotiTest apparatus. Behaviour of the rats was recorded for one hour. After each run animals were removed and the boxes thoroughly cleaned and dried.
Results were analysed by one way analysis of variance (ANOVA). Tukey test was used for individual comparison. P<0.05 was regarded as significant.

[2] = target: PDE10 from guinea pig striatum (Cavia porcellus, UniProt A0A286XN47); test: Inhibition of PDE10 from guinea pig striatum ([3H]-cAMP SPA); format: biochemical; settings: guinea pig striatum preparation; 0.1 μM [3H]-cAMP; 37° C., 30 minutes
Experimental: (§1) Phosphodiesterase isoenzyme 10 (PDE10) activity was determined in preparations of rat, pig and guinea pig striatum respectively. Striatum from male Wistar rats (180-200 g), male hybrid pigs (150 kg) and male guinea pigs (CRL (HA), 500 g) respectively were collected and frozen at −70° C.
(§2) For the enzymatic testing of PDE10 activity 0.5 g of the isolated and frozen striatum was homogenised in 10 ml 50 mM Tris/Mg-buffer at 4° C. and centrifuged for one hour at 100000 g.
(§3) Nonspecific activity was tested without the enzyme. […] For determination of IC50 values the Hill-plot, 2-parameter-model, was used.

PDE10 from rat striatum = target: T1, PDE10 from rat striatum (Rattus norvegicus, UniProt Q9QYJ6); test: Inhibition of PDE10 from rat striatum ([3H]-cAMP SPA); format: biochemical; settings: substrate of the enzyme preparation
T1 construct: from tissue; host or cells: rat striatum (male Wistar rats), homogenate fractions enriched on HiTrap Q HP
T1 sequence (Q9QYJ6 1-794): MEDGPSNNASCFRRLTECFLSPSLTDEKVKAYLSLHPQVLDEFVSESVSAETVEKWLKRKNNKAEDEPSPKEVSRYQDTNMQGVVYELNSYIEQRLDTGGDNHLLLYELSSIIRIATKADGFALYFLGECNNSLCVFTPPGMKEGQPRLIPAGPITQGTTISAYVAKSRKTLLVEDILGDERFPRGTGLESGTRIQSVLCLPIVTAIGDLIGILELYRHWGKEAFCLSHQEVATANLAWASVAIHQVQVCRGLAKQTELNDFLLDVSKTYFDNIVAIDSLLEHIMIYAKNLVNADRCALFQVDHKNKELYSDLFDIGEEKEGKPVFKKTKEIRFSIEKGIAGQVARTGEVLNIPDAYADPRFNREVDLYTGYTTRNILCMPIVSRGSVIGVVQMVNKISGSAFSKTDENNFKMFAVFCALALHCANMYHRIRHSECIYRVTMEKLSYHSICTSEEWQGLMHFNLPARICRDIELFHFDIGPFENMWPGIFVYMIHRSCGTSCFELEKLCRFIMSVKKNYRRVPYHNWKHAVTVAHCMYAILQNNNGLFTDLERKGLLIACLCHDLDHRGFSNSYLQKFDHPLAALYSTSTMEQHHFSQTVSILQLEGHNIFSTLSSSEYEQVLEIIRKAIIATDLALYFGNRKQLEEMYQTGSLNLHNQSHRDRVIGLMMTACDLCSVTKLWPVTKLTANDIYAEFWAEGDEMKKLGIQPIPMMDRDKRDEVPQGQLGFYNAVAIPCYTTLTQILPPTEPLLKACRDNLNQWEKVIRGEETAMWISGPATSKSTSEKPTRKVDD
Experimental: as §1, §2, §3

PDE10 from pig striatum = PDE10 from pig striatum (Sus scrofa, UniProt A0A287B941); test: Inhibition of PDE10 from pig striatum ([3H]-cAMP SPA); format: biochemical; settings: for IC50: pig striatum preparation, 0.1 μM [3H]-cAMP, 37° C., 30 minutes
Experimental: as §1, §2, §3

PDE10 from guinea pig striatum, sequence (A0A286XN47 1-773): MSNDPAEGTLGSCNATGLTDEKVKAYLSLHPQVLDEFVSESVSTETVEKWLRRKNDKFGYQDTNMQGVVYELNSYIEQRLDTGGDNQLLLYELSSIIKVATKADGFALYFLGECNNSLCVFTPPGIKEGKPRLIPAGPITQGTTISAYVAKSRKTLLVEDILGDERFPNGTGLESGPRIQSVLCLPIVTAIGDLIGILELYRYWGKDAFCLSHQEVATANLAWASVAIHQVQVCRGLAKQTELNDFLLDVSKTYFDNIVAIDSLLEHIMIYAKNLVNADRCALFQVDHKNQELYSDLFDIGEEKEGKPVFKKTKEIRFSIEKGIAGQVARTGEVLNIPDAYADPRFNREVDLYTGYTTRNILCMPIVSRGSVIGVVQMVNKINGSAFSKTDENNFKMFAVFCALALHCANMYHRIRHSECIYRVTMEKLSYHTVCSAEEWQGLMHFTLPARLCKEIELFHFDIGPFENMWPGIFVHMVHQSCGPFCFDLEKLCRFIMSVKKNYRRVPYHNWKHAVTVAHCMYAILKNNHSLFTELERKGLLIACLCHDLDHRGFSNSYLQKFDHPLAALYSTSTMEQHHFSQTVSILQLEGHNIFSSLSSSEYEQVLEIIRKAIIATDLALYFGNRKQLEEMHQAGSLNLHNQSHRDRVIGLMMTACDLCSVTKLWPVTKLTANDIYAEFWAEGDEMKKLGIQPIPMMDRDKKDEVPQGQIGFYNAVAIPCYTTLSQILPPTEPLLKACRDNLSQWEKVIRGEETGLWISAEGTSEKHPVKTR

## CCCN1CC(C)=C(SC)C2=C1N1CN(OC)C=C1C=N2 [Example 26, 8-methoxy-3-methyl-4-methylthio-1-propyl-imidazo[1,5-a]pyrido[3,2-e]pyrazine]
other
  melting point: 112 to 115 °C

## 3,4-dimethyl-8-(piperidin-1-yl)-methoxy-1-propyl-imidazo[1,5-a]pyrido[3,2-e]pyrazine [Example 55]
[1]
  dose significantly reversing MK-801-induced hyperactivity: 30 mg/kg
  dose significantly reversing MK-801-induced stereotyped sniffing: 30 mg/kg

## CCCN1CC(C)=C(NS(=O)(=O)CCC)C2=C1N1CN(OC)C=C1C=N2 [Example 74, 8-methoxy-3-methyl-1-propyl-4-propylsulfonylamino-imidazo[1,5-a]pyrido[3,2-e]pyrazine]
other
  melting point: 203 to 206 °C

## CCCN1CC(C)=C(C)C2=C1N1CN(C)C=C1C=N2 [Example 51, 1-propyl-3,4,8-trimethyl-imidazo[1,5-a]pyrido[3,2-e]pyrazine]
other
  melting point: 104 to 107 °C

## CCCN1CC=C(OC)C2=C1N1CN(OC)C=C1C=N2 [Example 2, 4,8-dimethoxy-1-propyl-imidazo[1,5-a]pyrido[3,2-e]pyrazine]
other
  melting point: 113 to 116 °C

## CCCc1nc(C)c2c(C#N)nc3ccc(OC)nc3n12 [Example 29, 4-cyano-8-methoxy-3-methyl-1-propyl-imidazo[1,5-a]pyrido[3,2e]pyrazine]
[1]
  dose significantly reversing MK-801-induced stereotyped sniffing: ≥ 5 mg/kg
[2]
  IC50: 18 nM

## 8-methoxy-4-methoxycarbonylamino-3-methyl-1-propyl-imidazo[1,5-a]pyrido[3,2-e]pyrazine [Example 62]
[1]
  dose significantly reversing MK-801-induced hyperactivity: 5 mg/kg
  dose significantly reversing MK-801-induced stereotyped sniffing: 5 mg/kg

## CON1C=C2C=NC3=C(N(CCC(F)(F)F)CC(C)=C3NS(C)(=O)=O)N2C1 [Example 78, 8-methoxy-3-methyl-1-(3,3,3-trifluoropropyl)-4-methylsulfonylamino-imidazo[1,5-a]pyrido[3,2-e]pyrazine]
other
  melting point: 250 to 253 °C

## CCCN1CC(C)=C(OC(C)C)C2=C1N1CN(OC)C=C1C=N2 [Example 9, 4-isopropyloxy-8-methoxy-3-methyl-1-propyl-imidazo[1,5-a]pyrido[3,2-e]pyrazine]
other
  melting point: 78 to 80 °C

## CCN1CC(C)=C([S+](C)[O-])C2=C1N1CN(OC)C=C1C=N2 (centres unmarked) [Example 34, 1-ethyl-8-methoxy-3-methyl-4-methylsulfinyl-imidazo[1,5-a]pyrido[3,2-e]pyrazine]
other
  melting point: 189 to 192 °C

## CCCOC1=C(C)CN(CC)C2=C1N=CC1=CN(OC)CN12 [Example 7, 1-ethyl-8-methoxy-3-methyl-4-propyloxy-imidazo[1,5-a]pyrido[3,2-e]pyrazine]
other
  melting point: 78 to 81 °C

## CCN1CC(C)=CC2=C1N1CN(OC)C=C1C=N2 [Example 36, 1-ethyl-8-methoxy-3-methyl-imidazo[1,5-a]pyrido[3,2-e]pyrazine]
other
  melting point: 159 to 162 °C

## CCCN1CC(C)=C(N(S(=O)(=O)c2ccc(C)cc2)S(=O)(=O)c2ccc(C)cc2)C2=C1N1CN(OC)C=C1C=N2 [Example 77, 4-[N,N-bis-(4-methylphenylsulfonyl)-amino]-8-methoxy-3-methyl-1-propyl-imidazo[1,5-a]pyrido[3,2-e]pyrazine]
other
  melting point: 206 to 209 °C

## 4-cyano-8-methoxy-3-methyl-1-ethyl-imidazo[1,5-a]pyrido[3,2-e]pyrazine [Example 30]
[1]
  dose significantly reversing MK-801-induced hyperactivity: ≥ 10 mg/kg
  dose significantly reversing MK-801-induced stereotyped sniffing: ≥ 10 mg/kg

## CON1C=C2C=NC3=C(N2C1)N(c1ccccc1)CC(C)=C3NS(C)(=O)=O [Example 81, 8-methoxy-3-methyl-1-phenyl-4-methylsulfonylamino-imidazo[1,5-a]pyrido[3,2-e]pyrazine]
other
  melting point: 217 to 220 °C

## 8-methoxy-3-methyl-1-propyl-imidazo[1,5-a]pyrido[3,2-e]pyrazine [Example 35]
[1]
  dose significantly reversing MK-801-induced hyperactivity: 30 mg/kg
  dose significantly reversing MK-801-induced stereotyped sniffing: ≥ 30 mg/kg

## Nc1nc2c(ncn2[C@@H]2O[C@@H]3COP(=O)(O)O[C@H]3[C@H]2O)c(=O)[nH]1 [cGMP]
PDE10 from rat striatum
  Km: 1800 nM
PDE10 from pig striatum; substrate of the enzyme preparation
  Km: 2200 nM

## 1-propyl-4,8-dimethyl-imidazo[1,5-a]pyrido[3,2-e]pyrazine [Example 53]
PDE10 from pig striatum
  IC50: 43 nM

## CCCN1CC(C)=C(NS(=O)(=O)c2ccc(C)cc2)C2=C1N1CN(OC)C=C1C=N2 [Example 76, 8-methoxy-3-methyl-4-(4-methylphenylsulfonylamino)-1-propyl-imidazo[1,5-a]pyrido[3,2-e]pyrazine]
other
  melting point: 229 to 232 °C

## CCCc1nc(C)c2c(NS(=O)(=O)C(F)(F)F)nc3ccc(OC)nc3n12 [Example 73, 8-methoxy-3-methyl-1-propyl-4-trifluoromethylsulfonylamino-imidazo[1,5a]pyrido[3,2-e]pyrazine]
PDE10 from pig striatum
  IC50: 19 nM
